“Also recorded” adds a separate entry of the source.
Legend:
[1] = system: immunogenic gene expression in the TME; conditions: treated HCC tumor tissue vs vehicle
Experimental: (§1) In addition, a previously reported oncogene-induced, sorafenib-resistant HCC mouse model[50] was used in the current study to examine the antitumor activities of synthesized compounds. Male C57BL/6j mice 4–5 weeks old were purchased from the National Laboratory Animal Center (Taipei, Taiwan) and kept in the laboratory animal center (LAC) of NHRI. The mice received 2 μg of pCMV(CAT)T7-SB100 (Addgene #34879), 10 μg of pT/Caggs-NRASV12 (Addgene #20205), and 10 μg of pKT2/CLP-AKT-LUC plasmids through hydrodynamic injection and were monitored for tumor growth weekly using IVIS until the development of HCC in the liver. The animal study was reviewed and approved by the NHRI IACUC (Institutional Animal Care and Use Committee). HCC-bearing mice with the total flux from IVIS imaging above 1 × 10^9 photons/s were used for treatment of conjugates. […] Repetitive IVIS imaging was performed to track tumor progression, and tumor tissues of the treated HCC-bearing mice were collected at day 3, day 7, and day 14 post conjugate administrations for histological examination and RNA extraction. The tumor tissues of vehicle-treated HCC-bearing mice were collected at day 14 post treatment to serve as control samples.
The concentration (absorbance at 260 nm) and purity (A260/280 and A260/230 ratios) of the extracted RNA were measured by spectrophotometry, and the integrity of the RNA was further determined by a 2100 Bioanalyzer system (Agilent Technologies). The RNA, hybridized with barcoded probes (NanoString Technologies) provided in the nCounter Mouse PanCancer Immune Profiling panel kit, was then used for measurement of the mRNA expression of 770 genes related to immune responses. Nanostring nSolver 4.0 and nCounter advanced analysis 2.0 software (NanoString Technologies) were used for data processing, immune cell profiling, and pathway scoring according to developer’s instructions.

[2] = Experimental: Six-week-old male ICR mice, from the Biolasco Taiwan, were divided into groups of three and dosed at 5 mg/kg intravenously. Blood samples were drawn from each animal at time points of 0.003, 0.083, 0.25, 0.5, 1, 2, 4, 6, 8, and 24 h and stored on ice (0–4 °C). With centrifugation (3000 rpm for 15 min at 4 °C in a Beckman Model Allegra 6R centrifuge), plasma was separated from the blood and stored in frozen conditions (−20 °C). […] The mice were sacrificed, and the blood samples of 0.5 mL each and tumor samples were collected at 0.5, 2, 6, 24, 72, and 168 h after administration. Each time point group included 4 mice. Mouse blood samples were collected in EDTA tubes and centrifuged at 13,000 rpm for 5 min at 4°C for plasma collection. Plasma and the harvested tumor samples were stored at −80°C until use. Fifty microliters of mouse plasma or the sample of tumor homogenated in ddH2O with dilution ratio of 1:3 (w/v) by MiniBeadbeater-16 (BioSpec Products Inc., OK, USA) was mixed with 100 μL of acetonitrile containing 250 ng/mL BPR0L187. The mixture was vortexed for 30 s and then centrifuged at 15000g for 20 min. The supernatant was transferred to a clean tube, and 15 μL of the supernatant was injected onto LC/MS/MS. Plasma samples were analyzed by liquid chromatography tandem mass spectrometry (LC/MS/MS). […]
[3] = system: HCC1806 triple-negative breast cancer (TNBC) xenografts
Experimental: (§2) Cancer cells, suspending in phenol red free medium/DPBS, were mixed with Matrigel (356237, BD Biosciences, San Jose CA, USA) in a 1:1 ratio. Human pancreatic cancer MIA PaCa-2 (1 × 10^6 cells) or triple-negative breast cancer HCC1806 (1 × 10^6cells) cells were subcutaneously inoculated to left flanks of male nude mice 6 weeks old (Biolasco, Taiwan) or female nude mice 6 weeks old by using a 1 mL syringe (needle 24G × 1 in., 0.55 × 25 mm; TERUMO). Tumor dimensions were measured twice a week with an electronic caliper (FOW54-200-777, PRO-MAX, Newton, Massachusetts, USA), and the volume of the subcutaneously growing tumor in mm^3 was calculated by the following formula: volume = (length × width[2])/2. Conjugates were formulated 10% DMA/20% Cremophor EL/70% injectable solution of 5% dextrose (D5W) for treating MIA PaCa-2 and HCC1806 xenograft tumors. […] Body weight of the mice and tumor volume were measured twice weekly.

[4] = Plasma incubation and tumor homogenate cleavage of conjugate; format: in vitro ADME
From the text: Figure 3 In vivo targeting ability, plasma stability, and in vivo biodistribution of modified zinc dipicolylamine conjugates in subcutaneous HCC1806 tumor xenografts. […] (B) In vivo detection of PS-expression in the HCC1806 tumor xenograft model. Representative IVIS images of new Zn11-794 fluorescence probe in mice.

[5] = system: HCC tumor microenvironment; conditions: HCC model
Experimental: as §1

[6] = system: sorafenib-resistant hepatocellular carcinoma (HCC) model
Experimental: as §1

[7] = rats, 1 mg/kg i.v. once a week for 4 weeks
Experimental: The animal body weights were measured daily during the study period. At the end of the study on day 29, all the animals were euthanized with 100% CO2 and sacrificed for organ harvest followed by organ weight measurements and for blood sample collection followed by hematology and serum chemistry assays. Hematology and serum chemistry parameters were determined using a HEMAVET 950 automated analyzer (Drew Scientific, Santa Clara, CA, USA) and a FUJI DRI-CHEM NX500 automated analyzer (FUJIFILM, Tokyo, Japan), respectively.

[8] = system: MIA PaCa-2 human xenografts; experiment: MIA PaCa-2 xenograft antitumor efficacy; conditions: 1 mg/kg intravenously twice weekly for two weeks (Figure 4)
Experimental: as §2

[9] = system: ovarian, skin, and oral cancer cell lines; conditions: Figure S2
[10] = Single intravenous dose pharmacokinetic study
Experimental: Six-week-old male ICR mice, from the Biolasco Taiwan, were divided into groups of three and dosed at 5 mg/kg intravenously. Blood samples were drawn from each animal at time points of 0.003, 0.083, 0.25, 0.5, 1, 2, 4, 6, 8, and 24 h and stored on ice (0–4 °C). With centrifugation (3000 rpm for 15 min at 4 °C in a Beckman Model Allegra 6R centrifuge), plasma was separated from the blood and stored in frozen conditions (−20 °C). […] The mice were sacrificed, and the blood samples of 0.5 mL each and tumor samples were collected at 0.5, 2, 6, 24, 72, and 168 h after administration. Each time point group included 4 mice. Mouse blood samples were collected in EDTA tubes and centrifuged at 13,000 rpm for 5 min at 4°C for plasma collection. Plasma and the harvested tumor samples were stored at −80°C until use. Fifty microliters of mouse plasma or the sample of tumor homogenated in ddH2O with dilution ratio of 1:3 (w/v) by MiniBeadbeater-16 (BioSpec Products Inc., OK, USA) was mixed with 100 μL of acetonitrile containing 250 ng/mL BPR0L187. The mixture was vortexed for 30 s and then centrifuged at 15000g for 20 min. The supernatant was transferred to a clean tube, and 15 μL of the supernatant was injected onto LC/MS/MS. Plasma samples were analyzed by liquid chromatography tandem mass spectrometry (LC/MS/MS). The chromatographic system Agilent 1200 series LC system and an Agilent ZORBAX Eclipse XDB-C8 column (5 μm, 3.0 × 150 mm) interfaced to an MDS Sciex API4000 tandem mass spectrometer equipped with an ESI in the positive scanning mode at 600 °C was used. Data acquisition was collected via multiple reactions monitoring (MRM). A gradient system was employed for the separation of analyte and IS. Mobile phase A was 10 mM ammonium acetate aqueous solution containing 0.1% formic acid. Mobile phase B was acetonitrile. The gradient profile was as follows: 0.0–1.1 min, 50% B; 1.2–3.7 min, 55%B–90%B; 3.8–5.0 min, 90%B–50%B. The flow rate was 1.5 mL/min. The autosampler was programmed to inject 15 μL of the sample every 5 min.

CCCCCC(=O)Nc1cccc(CN(Cc2cc(CN(Cc3ccccn3)Cc3cccc(NC(=O)CCCCC)n3)cc(OCCCCN(Cc3ccc(-c4ccccc4)cc3)C(=O)COCCOCCOCC(=O)NCc3ccc(CNC(=O)CCSSCCC(=O)N(C)[C@@H](C)C(=O)O[C@H]4CC(=O)N(C)c5cc(cc(OC)c5Cl)C/C(C)=C/C=C\[C@@H](OC)[C@@]5(O)C[C@H](OC(=O)N5)[C@@H](C)[C@@H]5O[C@@]45C)cc3)c2)Cc2ccccn2)n1.O=[N+]([O-])[O-].O=[N+]([O-])[O-].O=[N+]([O-])[O-].O=[N+]([O-])[O-].[Zn+2].[Zn+2] [Compound 40a]
gene expression of CCL2 [1]: significantly elevated | gene expression of CCL5 and CXCL10 [1]: Significant increases | gene expression of STAT1 [1]: significantly elevated | T-cell, macrophage, NK cell, chemokine and receptor functions and inflammation score (gene set analysis) ([1]; n = 3): striking elevations | plasma stability in vivo, detection of released 14 ([2]; plasma of HCC1806 tumor-bearing mice): negligible detection of 14 | 14 released from 40a in the tumor mass ([2]; tumor tissue of HCC1806 tumor-bearing mice): significant time-dependent increase | antitumor efficacy against HCC1806 TNBC xenografts ([3]; intravenous twice per week (Figure 4B)): potent antitumor efficacy | efficacy on larger HCC1806 tumors ([3]; larger (400–800 mm^3) tumors, 2.5 mg/kg once per week for three weeks): potent efficacies and shrinkage | stability in plasma incubation ([4]; plasma): stable | cleavage with tumor homogenates ([4]; tumor homogenate): readily cleaved | Ki67 expression in treated tumors ([5]; 1 mg/kg i.v.): reduction | infiltration of Gr-1+ monocytes and polymorphonuclear granulocytes and F4/80+ macrophages ([5]; IHC staining): increased infiltration | cytotoxic CD8+ T-cell infiltration ([5]; days 3, 7, and 14): significant increase | tumor burden by bioluminescence ([6]; 1 mg/kg i.v. twice weekly for two weeks): significant decrease | activity against HCC tumor growth ([6]; 1 mg/kg injected twice weekly for two weeks): potent activity | total liver weight ([6]; 14 days after treatment): marked reduction | BUN and creatinine levels [7]: normal | GOT and GPT [7]: slightly increased (not significant) | hematologic (leukocyte, neutrophil, lymphocyte, and platelet) parameters [7]: normal | organ weights (liver and kidneys) [7]: did not alter organ weights | antitumor efficacy [8]: potent antitumor efficacies; also recorded: potent and lasting anti-MIA PaCa-2 activity | body weight change during treatment [8]: without apparent body weight loss | potency against ovarian, skin, and oral cancer cell lines [9]: highly potent | decrease in volume distribution (Vss) ([10]; 40a compared with conjugates 30 and 36): 5 fold | AUC(0-24 hr) Conjugate ([10]; intact conjugate, male ICR mice, 5 mg/kg intravenous): 105,599 ng/mL*hr | CL ([10]; male ICR mice, 5 mg/kg intravenous, n = 3): 0.9 mL/min/kg | Vss ([10]; male ICR mice, 5 mg/kg intravenous, n = 3, 5 mg/kg): 0.1 L/kg | AUC(0-24 hr) Drug ([10]; released payload 14, male ICR mice, 5 mg/kg intravenous of conjugate): 305 ng·h/mL
